± gives the expanded uncertainty stated by the source.
Details: Crystal; DTA

O=c1cc(-c2ccc(O)c(O)c2)oc2cc(O)cc(O)c12 [5,7,3',4'-tetrahydroxyflavone]
Normal melting temperature: 337.43 ± 1 °C
